Assays:
[1] = test system: standard panel of 12 tumor cell lines (NCI-H23, NCI-H522, MDA-MB-231, MDA-MB-435, SW-620, COLO 205, LOX, UACC-62, OVCAR-3, OVCAR-5, U251 and SF-295); test: In vivo hollow fiber assay (HFA); set-up: species or system mice; conditions: out of 48; NSC 706744 at 100 and 150 mg/kg; conjugates at 12 and 18 (20k) or 9 and 12 (40k) mg/kg/dose IndQ equivalent
Procedure: A standard panel of 12 tumor cell lines is used for routine hollow fiber screening. These include NCI-H23, NCI-H522, MDA-MB-231, MDA-MB-435, SW-620, COLO 205, LOX, UACC-62, OVCAR-3, OVCAR-5, U251 and SF-295. A total of 3 different tumor lines are prepared for each experiment so that each mouse receives 3 intraperitoneal implants (1 of each tumor line) and 3 subcutaneous implants (1 of each tumor line). Each compound tested is administered by intraperitoneal injection at 2 dose levels. The percent net growth for each cell line in each treatment group is calculated and compared to the percent net growth in the vehicle treated controls. A 50% or greater reduction in percent net growth in the treated samples compared to the vehicle control samples is considered a positive result. […] A compound is considered for xenograft testing if it has a combined ip+sc score of 20 or greater, a sc score of 8 or greater, or produces cell death of any cell line at either dose level evaluated.
The in vivo hollow fiber assay (HFA) in mice was conducted per previously published methods using the 20 k ΔPEG-RNL9-IndQ at equivalent IndQ active doses of 12 and 18 mg/kg/dose and 40 k ΔPEG-RNL9-IndQ at equivalent IndQ active doses of 9 and 12 mg/kg/dose. For comparison, NSC 706744 (native or unmodified) was evaluated at doses of 100 and 150 mg/kg/dose which are the highest doses routinely tested.

[2] = test system: standard panel of 12 tumor cell lines (NCI-H23, NCI-H522, MDA-MB-231, MDA-MB-435, SW-620, COLO 205, LOX, UACC-62, OVCAR-3, OVCAR-5, U251 and SF-295); conditions: historic data for comparison; cited from earlier work

## COc1cc2c3c(n(CCCNCCO)c(=O)c2cc1OC)-c1cc2c(cc1C3=O)OCO2 [NSC 706744]
[1]
  score in IP fibers: 6/48
  score in SC fibers: 6/48

## CC(=O)O[C@H]1C(=O)[C@@]2(C)[C@H]([C@H](OC(=O)c3ccccc3)[C@]3(O)C[C@H](OC(=O)[C@H](O)[C@@H](NC(=O)c4ccccc4)c4ccccc4)C(C)=C1C3(C)C)[C@]1(OC(C)=O)CO[C@@H]1C[C@@H]2O [Taxol]
[2]
  Activity: Active
  Cell Death: Yes
  IP + SC score: 42
  IP score: 36
  SC score: 6

Reference: patent US20090156629A1, “INDENOISOQUINOLINE-RELEASABLE POLYMER CONJUGATES” (Enzon Pharmaceuticals, Inc., priority 2006, published 2009)
